# Read-outs that look alike come from different tables or passages of the source.
# Tests used:
# Type in all cases: biochemical
# [1] = target: PIM-1 (Homo sapiens (Human), UniProt P11309); assay: inhibition test on kinase PIM-1 (residual activity, IC50)
# From the text: (§1) MKK1, ERK 1, ERK 2, JNK1, JNK2, JNK3, p38a MAPK, p38b MAPK, p38g MAPK, p38s MAPK, ERK8, RSK1, RSK2, PDK1, PKBa, PKBb, SGK1, S6K1, PKA, ROCK2, PRK2, PKCa, PKC zeta, PKD1, MSK1, MNK1, MNK2, MAPKAP-K2, MAPKAP-K3, PRAK, CAMKKa, CAMKKb, CAMK1, SmMLCK, PHK, CHK1, CHK2, GSK3b, CDK2/cyclin A, PLK1, PLK1 (Okadaic acid), Aurora B, Aurora C, AMPK, MARK3, BRSK2, MELK, CK1, CK2, NEK2a, NEK6, NEK7, IKKb, PIM-1, PIM-2, PIM-3, SRPK1, MST2, EF2K, HIPK2, HIPK3, PAK-4, PAK5, PAK6, Src, Lck, CSK.
# (§2) The results in terms of residual activity of the kinases after being placed in contact with the compounds of Examples 2, 3 and 5, at a concentration of 10 μM (10 μmol/L), are shown in Table 1 below.
# (§3) The higher the residual activity of the kinase tested, the lower the inhibitory activity of the test compounds on the tested kinase.
# (§4) The compounds according to the invention were then tested on the kinases PIM-1, PIM-2 and PIM-3.
# (§5) The results in terms of percentage of residual activity after placing the compounds according to the invention in contact with each of the kinases PIM-1, PIM-2 and PIM-3 are given in Table 2 below.
# (§6) The higher the residual activity, the lower the inhibitory activity of the test compounds.
# (§7) The mean inhibitory concentrations (IC50) of certain preferred compounds of the invention were determined in the following manner: the IC50 values were measured after performing the inhibition tests on the kinases PIM-1, PIM-2 and PIM-3 at ten different concentrations for each test compound, and the IC50 value was determined from the dose-inhibition curves obtained.
# [2] = target: NEK7 (Homo sapiens (Human), UniProt Q8TDX7); assay: kinase panel residual activity test; conditions: compound at 10 μM
# From the text: as §1
# [3] = target: Aurora B (Homo sapiens (Human), UniProt Q96GD4); assay: kinase panel residual activity test; conditions: compound at 10 μM
# Aurora B, sequence (Q96GD4 whole entry): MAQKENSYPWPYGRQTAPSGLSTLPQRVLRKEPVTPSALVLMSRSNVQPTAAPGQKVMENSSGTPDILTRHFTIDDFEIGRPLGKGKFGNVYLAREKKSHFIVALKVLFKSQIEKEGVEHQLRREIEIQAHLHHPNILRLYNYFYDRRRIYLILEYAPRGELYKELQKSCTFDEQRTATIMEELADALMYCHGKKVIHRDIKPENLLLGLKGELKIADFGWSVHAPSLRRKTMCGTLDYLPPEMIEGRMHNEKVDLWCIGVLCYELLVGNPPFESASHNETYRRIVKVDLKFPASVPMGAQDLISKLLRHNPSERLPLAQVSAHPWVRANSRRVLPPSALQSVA
# From the text: as §1
# [4] = target: p38g MAPK (Homo sapiens (Human), UniProt P53778); assay: kinase panel residual activity test; conditions: compound at 10 μM
# p38g MAPK, sequence (P53778 whole entry): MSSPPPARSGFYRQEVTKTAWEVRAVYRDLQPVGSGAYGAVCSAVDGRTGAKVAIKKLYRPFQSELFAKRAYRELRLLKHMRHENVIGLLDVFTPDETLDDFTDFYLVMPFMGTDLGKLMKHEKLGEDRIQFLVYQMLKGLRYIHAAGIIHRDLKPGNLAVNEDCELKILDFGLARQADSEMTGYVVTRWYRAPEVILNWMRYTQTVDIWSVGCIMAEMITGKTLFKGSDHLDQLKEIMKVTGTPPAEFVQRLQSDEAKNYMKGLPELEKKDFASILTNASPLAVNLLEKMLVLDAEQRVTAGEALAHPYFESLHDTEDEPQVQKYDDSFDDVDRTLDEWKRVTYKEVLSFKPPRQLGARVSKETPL
# From the text: as §1
# [5] = target: PLK1 (Homo sapiens (Human), UniProt P53350); assay: kinase panel residual activity test; conditions: compound at 10 μM
# PLK1, sequence (P53350 whole entry, species assumed): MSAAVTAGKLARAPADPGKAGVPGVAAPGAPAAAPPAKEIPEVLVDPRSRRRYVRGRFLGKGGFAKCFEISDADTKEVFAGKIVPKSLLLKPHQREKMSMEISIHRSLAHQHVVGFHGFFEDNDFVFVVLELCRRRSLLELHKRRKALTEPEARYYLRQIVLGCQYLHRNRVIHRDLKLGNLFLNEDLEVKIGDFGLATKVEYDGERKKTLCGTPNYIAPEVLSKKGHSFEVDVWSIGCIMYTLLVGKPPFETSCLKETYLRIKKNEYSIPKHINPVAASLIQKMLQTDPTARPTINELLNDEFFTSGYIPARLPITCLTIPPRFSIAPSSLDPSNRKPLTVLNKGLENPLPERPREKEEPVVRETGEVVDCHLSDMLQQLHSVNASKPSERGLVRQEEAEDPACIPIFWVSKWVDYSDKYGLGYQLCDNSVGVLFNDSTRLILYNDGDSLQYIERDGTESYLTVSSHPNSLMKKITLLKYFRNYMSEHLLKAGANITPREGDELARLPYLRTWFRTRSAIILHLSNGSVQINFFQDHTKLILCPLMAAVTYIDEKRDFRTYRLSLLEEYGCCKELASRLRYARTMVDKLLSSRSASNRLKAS
# From the text: as §1
# [6] = target: MKK1 (Homo sapiens (Human), UniProt Q02750); assay: kinase panel residual activity test; conditions: compound at 10 μM
# From the text: as §1
# [7] = target: RSK1 (Homo sapiens (Human), UniProt Q15418); assay: kinase panel residual activity test; conditions: compound at 10 μM
# From the text: as §1
# [8] = target: PAK6 (Homo sapiens (Human), UniProt Q9NQU5); assay: kinase panel residual activity test; conditions: compound at 10 μM
# From the text: as §1
# [9] = target: PKC zeta (Homo sapiens (Human), UniProt Q05513); assay: kinase panel residual activity test; conditions: compound at 10 μM
# PKC zeta, sequence (Q05513 whole entry): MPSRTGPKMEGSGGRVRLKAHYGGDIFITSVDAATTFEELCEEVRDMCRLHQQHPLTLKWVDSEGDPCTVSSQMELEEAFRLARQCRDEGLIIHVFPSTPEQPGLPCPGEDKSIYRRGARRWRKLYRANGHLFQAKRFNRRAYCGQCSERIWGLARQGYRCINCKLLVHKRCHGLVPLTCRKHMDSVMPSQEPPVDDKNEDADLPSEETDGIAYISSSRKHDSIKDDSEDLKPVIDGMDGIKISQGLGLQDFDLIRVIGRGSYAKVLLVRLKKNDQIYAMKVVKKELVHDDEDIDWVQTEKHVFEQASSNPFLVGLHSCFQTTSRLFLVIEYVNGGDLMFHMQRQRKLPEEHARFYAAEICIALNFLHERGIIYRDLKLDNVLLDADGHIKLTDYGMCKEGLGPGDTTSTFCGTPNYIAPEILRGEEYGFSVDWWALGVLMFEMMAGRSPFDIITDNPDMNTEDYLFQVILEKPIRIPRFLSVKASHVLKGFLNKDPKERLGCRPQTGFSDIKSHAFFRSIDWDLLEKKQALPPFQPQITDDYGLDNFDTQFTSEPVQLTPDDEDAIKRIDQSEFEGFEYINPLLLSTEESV
# From the text: as §1
# [10] = target: CAMK1 (Homo sapiens (Human), UniProt Q14012); assay: kinase panel residual activity test; conditions: compound at 10 μM
# CAMK1, sequence (Q14012 whole entry, species assumed): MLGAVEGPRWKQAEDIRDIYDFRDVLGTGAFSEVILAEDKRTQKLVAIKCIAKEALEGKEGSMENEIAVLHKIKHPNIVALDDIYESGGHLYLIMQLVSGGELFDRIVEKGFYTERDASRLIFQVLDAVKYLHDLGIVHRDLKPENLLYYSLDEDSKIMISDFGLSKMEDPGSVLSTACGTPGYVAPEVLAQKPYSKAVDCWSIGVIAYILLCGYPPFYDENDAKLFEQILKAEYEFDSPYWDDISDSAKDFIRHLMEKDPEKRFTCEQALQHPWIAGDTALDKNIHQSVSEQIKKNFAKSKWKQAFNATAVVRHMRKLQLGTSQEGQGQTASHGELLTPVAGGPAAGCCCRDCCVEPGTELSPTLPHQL
# From the text: as §1
# [11] = target: GSK3b (Homo sapiens (Human), UniProt P49841); assay: kinase panel residual activity test; conditions: compound at 10 μM
# From the text: as §1
# [12] = target: MAPKAP-K3 (Homo sapiens (Human), UniProt Q16644); assay: kinase panel residual activity test; conditions: compound at 10 μM
# MAPKAP-K3, sequence (Q16644 whole entry, species assumed): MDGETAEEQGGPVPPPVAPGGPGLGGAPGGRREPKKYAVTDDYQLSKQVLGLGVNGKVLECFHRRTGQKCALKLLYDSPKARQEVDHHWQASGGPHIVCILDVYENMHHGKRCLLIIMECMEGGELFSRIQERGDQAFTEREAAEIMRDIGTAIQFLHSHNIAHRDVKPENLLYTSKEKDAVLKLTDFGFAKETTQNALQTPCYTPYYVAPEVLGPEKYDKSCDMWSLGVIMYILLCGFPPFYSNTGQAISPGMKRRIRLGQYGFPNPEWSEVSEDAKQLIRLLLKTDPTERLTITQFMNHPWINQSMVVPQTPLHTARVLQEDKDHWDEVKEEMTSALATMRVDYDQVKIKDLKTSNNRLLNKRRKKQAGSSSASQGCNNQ
# From the text: as §1
# [13] = tested on: CK2; assay: kinase panel residual activity test; conditions: compound at 10 μM
# From the text: as §1
# [14] = target: ROCK2 (Homo sapiens (Human), UniProt O75116); assay: kinase panel residual activity test; conditions: compound at 10 μM
# From the text: as §1
# [15] = target: p38b MAPK (Homo sapiens (Human), UniProt Q15759); assay: kinase panel residual activity test; conditions: compound at 10 μM
# From the text: as §1
# [16] = target: PDK1 (Homo sapiens (Human), UniProt O15530); assay: kinase panel residual activity test; conditions: compound at 10 μM
# PDK1, sequence (O15530 whole entry): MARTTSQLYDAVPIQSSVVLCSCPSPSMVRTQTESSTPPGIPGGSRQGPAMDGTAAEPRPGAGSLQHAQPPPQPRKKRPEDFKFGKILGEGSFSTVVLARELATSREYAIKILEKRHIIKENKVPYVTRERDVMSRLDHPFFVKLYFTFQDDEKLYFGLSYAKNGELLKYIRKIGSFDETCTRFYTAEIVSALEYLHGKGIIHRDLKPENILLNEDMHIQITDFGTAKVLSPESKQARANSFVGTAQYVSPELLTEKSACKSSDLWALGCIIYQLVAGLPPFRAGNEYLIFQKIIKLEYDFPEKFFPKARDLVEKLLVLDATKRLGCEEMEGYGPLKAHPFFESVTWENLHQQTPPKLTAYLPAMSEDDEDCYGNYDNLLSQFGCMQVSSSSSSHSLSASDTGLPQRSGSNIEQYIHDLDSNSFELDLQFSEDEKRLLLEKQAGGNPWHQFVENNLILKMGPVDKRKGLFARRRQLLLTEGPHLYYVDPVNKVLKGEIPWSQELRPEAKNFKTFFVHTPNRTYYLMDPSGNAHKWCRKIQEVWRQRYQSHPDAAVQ
# From the text: as §1
# [17] = target: MNK1 (Homo sapiens (Human), UniProt Q9BUB5); assay: kinase panel residual activity test; conditions: compound at 10 μM
# MNK1, sequence (Q9BUB5 whole entry, species assumed): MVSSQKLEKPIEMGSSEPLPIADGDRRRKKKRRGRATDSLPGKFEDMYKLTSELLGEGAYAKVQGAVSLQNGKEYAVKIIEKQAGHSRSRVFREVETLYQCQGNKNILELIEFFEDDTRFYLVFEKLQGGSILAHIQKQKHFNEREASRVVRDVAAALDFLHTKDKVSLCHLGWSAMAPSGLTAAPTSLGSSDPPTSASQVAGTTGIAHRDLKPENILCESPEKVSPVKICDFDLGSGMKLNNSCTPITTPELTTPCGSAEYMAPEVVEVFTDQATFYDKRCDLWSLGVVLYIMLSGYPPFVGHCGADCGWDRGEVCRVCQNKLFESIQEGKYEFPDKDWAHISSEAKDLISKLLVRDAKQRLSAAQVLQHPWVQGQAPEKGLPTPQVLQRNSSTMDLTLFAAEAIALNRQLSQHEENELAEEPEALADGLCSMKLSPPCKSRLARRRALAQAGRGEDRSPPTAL
# From the text: as §1
# [18] = target: PAK5 (Homo sapiens (Human), UniProt Q9P286); assay: kinase panel residual activity test; conditions: compound at 10 μM
# From the text: as §1
# [19] = target: BRSK2 (Homo sapiens (Human), UniProt Q8IWQ3); assay: kinase panel residual activity test; conditions: compound at 10 μM
# From the text: as §1
# [20] = target: Lck (Homo sapiens (Human), UniProt P06239); assay: kinase panel residual activity test; conditions: compound at 10 μM
# From the text: as §1
# [21] = target: ERK2 (Homo sapiens (Human), UniProt P28482); assay: kinase panel residual activity test; conditions: compound at 10 μM
# From the text: as §1
# [22] = target: CSK (Homo sapiens (Human), UniProt P41240); assay: kinase panel residual activity test; conditions: compound at 10 μM
# From the text: as §1
# [23] = target: PAK4 (Homo sapiens (Human), UniProt O96013); assay: kinase panel residual activity test; conditions: compound at 10 μM
# From the text: as §1
# [24] = target: CAMKKb (Homo sapiens (Human), UniProt Q96RR4); assay: kinase panel residual activity test; conditions: compound at 10 μM
# CAMKKb, sequence (Q96RR4 whole entry, species assumed): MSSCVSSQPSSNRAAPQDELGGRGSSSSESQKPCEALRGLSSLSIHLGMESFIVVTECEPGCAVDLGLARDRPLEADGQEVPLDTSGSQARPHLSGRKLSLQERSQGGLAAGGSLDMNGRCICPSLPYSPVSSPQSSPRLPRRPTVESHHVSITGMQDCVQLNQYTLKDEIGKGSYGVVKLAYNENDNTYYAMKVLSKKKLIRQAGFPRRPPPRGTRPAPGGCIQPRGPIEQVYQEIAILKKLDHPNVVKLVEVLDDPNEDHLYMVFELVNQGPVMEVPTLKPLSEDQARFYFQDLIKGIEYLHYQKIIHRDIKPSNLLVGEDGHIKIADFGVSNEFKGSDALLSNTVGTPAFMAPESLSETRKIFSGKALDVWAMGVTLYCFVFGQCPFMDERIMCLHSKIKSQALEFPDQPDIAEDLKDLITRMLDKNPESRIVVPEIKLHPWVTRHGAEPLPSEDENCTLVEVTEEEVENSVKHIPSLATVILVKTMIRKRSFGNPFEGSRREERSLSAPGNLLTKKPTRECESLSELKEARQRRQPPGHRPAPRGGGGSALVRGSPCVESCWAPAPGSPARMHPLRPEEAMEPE
# From the text: as §1
# [25] = target: PLK1 (Okadaic acid) (Homo sapiens (Human), UniProt P53350); assay: kinase panel residual activity test; conditions: compound at 10 μM
# PLK1 (Okadaic acid), sequence (P53350 whole entry, species assumed): as the sequence (P53350 whole entry, species assumed) above
# From the text: as §1
# [26] = target: EF2K (Homo sapiens (Human), UniProt O00418); assay: kinase panel residual activity test; conditions: compound at 10 μM
# From the text: as §1
# [27] = tested on: CK1; assay: kinase panel residual activity test; conditions: compound at 10 μM
# From the text: as §1
# [28] = target: PIM-3 (Homo sapiens (Human), UniProt Q86V86); assay: inhibition test on kinase PIM-3 (residual activity, IC50)
# From the text: as §1, §2, §3, §4, §5, §6, §7
# [29] = target: PIM-2 (Homo sapiens (Human), UniProt Q9P1W9); assay: inhibition test on kinase PIM-2 (residual activity, IC50)
# PIM-2, sequence (Q9P1W9 whole entry, species assumed): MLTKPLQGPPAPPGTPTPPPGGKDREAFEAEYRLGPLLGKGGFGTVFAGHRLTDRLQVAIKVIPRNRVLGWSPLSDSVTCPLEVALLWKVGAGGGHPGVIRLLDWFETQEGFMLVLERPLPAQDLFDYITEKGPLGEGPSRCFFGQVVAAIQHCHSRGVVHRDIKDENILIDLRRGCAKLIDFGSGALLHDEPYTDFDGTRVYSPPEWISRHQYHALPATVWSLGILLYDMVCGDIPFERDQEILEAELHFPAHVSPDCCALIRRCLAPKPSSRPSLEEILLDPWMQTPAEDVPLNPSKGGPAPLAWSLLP
# From the text: as §1, §2, §3, §4, §5, §6, §7
# [30] = compound at 10 μM, Table 1 panel, read-out: % residual activity PIM-1
# [31] = product at 10 μmol/L, Table 2, N.I. = not inhibitory, read-out: Percentage of residual activity PIM-1
# [32] = compound at 10 μM, Table 1 panel, read-out: % residual activity PIM-3
# [33] = product at 10 μmol/L, Table 2, N.I. = not inhibitory, read-out: Percentage of residual activity PIM-3
# [34] = compound at 10 μM, Table 1 panel, read-out: % residual activity PIM-2
# [35] = product at 10 μmol/L, Table 2, N.I. = not inhibitory, read-out: Percentage of residual activity PIM-2
# [36] = ten concentrations, dose-inhibition curve
# PIM-1, sequence (P11309 whole entry, species assumed): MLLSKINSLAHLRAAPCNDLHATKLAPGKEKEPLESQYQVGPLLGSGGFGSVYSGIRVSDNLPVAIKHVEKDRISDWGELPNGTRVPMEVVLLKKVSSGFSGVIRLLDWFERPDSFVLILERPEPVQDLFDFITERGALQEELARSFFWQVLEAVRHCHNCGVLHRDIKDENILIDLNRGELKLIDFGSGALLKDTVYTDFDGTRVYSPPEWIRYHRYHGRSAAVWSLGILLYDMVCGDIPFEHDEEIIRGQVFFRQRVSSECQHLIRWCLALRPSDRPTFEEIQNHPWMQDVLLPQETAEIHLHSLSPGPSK
Compound,"remaining activity at 10 µM [1, 30] [%]",remaining activity at 10 µM [2] [%],remaining activity at 10 µM [3] [%],remaining activity at 10 µM [4] [%],remaining activity at 10 µM [5] [%],remaining activity at 10 µM [8] [%],remaining activity at 10 µM [9] [%],remaining activity at 10 µM [10] [%],remaining activity at 10 µM [11] [%],remaining activity at 10 µM [12] [%],remaining activity at 10 µM [15] [%],remaining activity at 10 µM [16] [%],remaining activity at 10 µM [17] [%],remaining activity at 10 µM [18] [%],remaining activity at 10 µM [19] [%],remaining activity at 10 µM [22] [%],remaining activity at 10 µM [23] [%],remaining activity at 10 µM [24] [%],remaining activity at 10 µM [25] [%],remaining activity at 10 µM [26] [%],other results
"c1ccc2c(c1)[nH]c1c2ccc2cc[nH]c21 [Example 2, 1,10-dihydropyrrolo[2,3-a]carbazole]",20,96,67,111,111,92,91,29,111,89,100,86,69,82,58,98,84,93,103,101,"remaining activity at 10 µM [1, 31]: 20%; remaining activity at 10 µM [6]: 87%; remaining activity at 10 µM [7]: 105%; % residual activity CK2 [13]: 91%; remaining activity at 10 µM [14]: 86%; remaining activity at 10 µM [20]: 88%; remaining activity at 10 µM [21]: 94%; % residual activity CK1 [27]: 107%; remaining activity at 10 µM [28, 32]: 10%; remaining activity at 10 µM [28, 33]: 10%; remaining activity at 10 µM [29, 34]: 62%; remaining activity at 10 µM [29, 35]: 62%"
"NC(=O)c1c[nH]c2c1ccc1c3ccccc3[nH]c12 [Example 5, 1,10-dihydropyrrolo[2,3-a]carbazole-3-carboxamide]",9,89,65,96,100,83,78,80,91,75,92,67,19,70,32,65,16,79,79,92,"remaining activity at 10 µM [1, 31]: 9%; IC50 [1, 36]: 780 nM; remaining activity at 10 µM [6]: 80%; remaining activity at 10 µM [7]: 79%; % residual activity CK2 [13]: 77%; remaining activity at 10 µM [14]: 48%; remaining activity at 10 µM [20]: 78%; remaining activity at 10 µM [21]: 93%; % residual activity CK1 [27]: 96%; remaining activity at 10 µM [28, 32]: 9%; remaining activity at 10 µM [28, 33]: 9%; IC50 [28, 36]: 210 nM; remaining activity at 10 µM [29, 34]: 27%; remaining activity at 10 µM [29, 35]: 27%"
"O=Cc1c[nH]c2c1ccc1c3ccccc3[nH]c12 [Example 3, 1,10-dihydropyrrolo[2,3-a]carbazole-3-carbaldehyde]",–,89,68,74,91,94,83,71,88,69,80,76,27,87,22,74,88,56,83,90,–
